Our source for the IC50 values is US10927123B2, “Modulators of the beta-3 adrenergic receptor useful for the treatment or prevention of disorders related thereto” (Arena Pharmaceuticals, Inc., priority 2016, dated 2021).

In general, IC50 refers to the concentration that gives 50% inhibition.

Beta-3 Adrenergic Receptor, sequence (P13945 whole entry, species assumed): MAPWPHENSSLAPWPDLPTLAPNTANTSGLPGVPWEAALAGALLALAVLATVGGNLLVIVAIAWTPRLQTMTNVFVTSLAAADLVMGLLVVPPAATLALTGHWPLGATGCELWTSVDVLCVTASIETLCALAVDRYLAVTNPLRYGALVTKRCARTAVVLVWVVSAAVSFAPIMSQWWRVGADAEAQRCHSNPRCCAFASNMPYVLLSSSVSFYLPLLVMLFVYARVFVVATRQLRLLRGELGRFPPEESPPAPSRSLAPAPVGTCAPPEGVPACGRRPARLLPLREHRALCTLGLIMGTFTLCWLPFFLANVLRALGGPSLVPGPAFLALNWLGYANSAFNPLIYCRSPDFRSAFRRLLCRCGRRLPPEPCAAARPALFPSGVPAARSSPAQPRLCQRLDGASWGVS

This assay concerns the target Beta-3 Adrenergic Receptor (Homo sapiens (Human), UniProt P13945). Put plainly: HTRF cAMP antagonist assay (IC50 determination). The assay is classed as cell-based. To be noted: CHO-K1 cells stably expressing recombinant receptor; antagonism of isoproterenol at EC90; cAMP readout. In short, it runs like this:
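CHO-K1 cells stably expressing the recombinant receptor were preincubated with compound (10-point, 5-fold dilutions; top final typically 10 or 100 μM) in PBS with 1 mM IBMX, then stimulated with isoproterenol at its EC90 for 1 h at room temperature. cAMP was read by HTRF against an on-plate standard curve.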
With `CCOc1ccc(-c2ccc(CN)cc2)cc1S(=O)(=O)N1CCC2(CC1)C[C@@H](NC[C@H](O)COc1cccc(S(=O)(=O)C(F)(F)CO)c1)CO2` [Compound 161, (S)-1-((R)-8-(4′-(aminomethyl)-4-ethoxybiphenyl-3-ylsulfonyl)-1-oxa-8-azaspiro[4.5]decan-3-ylamino)-3-(3-(1,1-difluoro-2-hydroxyethylsulfonyl)phenoxy)propan-2-ol], the IC50 came out at 21.1 nM.

Take `C[C@H]1CN(C)c2cc(S(=O)(=O)N3CCC4(CC3)C[C@@H](NC[C@H](O)COc3cccc(S(=O)(=O)C5CC5)c3)CO4)cnc2O1` [Compound 274, (S)-1-(3-(cyclopropylsulfonyl)phenoxy)-3-((R)-8-((S)-1,3-dimethyl-2,3-dihydro-1H-pyrido[2,3-b][1,4]oxazin-7-ylsulfonyl)-1-oxa-8-azaspiro[4.5]decan-3-ylamino)propan-2-ol]: the IC50 came out at 38.4 nM.

Turning to `CCCS(=O)(=O)c1cccc(OC[C@@H](O)CNC2COC3(CCN(S(=O)(=O)c4ccc5ccccc5c4)CC3)C2)c1` (stereo partly drawn) [Compound 6, (2S)-1-(8-(naphthalen-2-ylsulfonyl)-1-oxa-8-azaspiro[4.5]decan-3-ylamino)-3-(3-(propylsulfonyl)phenoxy)propan-2-ol], the IC50 is 16.5 nM.

On to `CCn1cc(S(=O)(=O)N2CCC3(CC2)C[C@@H](NC[C@H](O)COc2cccc(S(=O)(=O)COC)c2)CO3)c(=O)c2ccccc21` [Compound 306, 1-ethyl-3-((R)-3-((S)-2-hydroxy-3-(3-(methoxymethylsulfonyl)phenoxy)propylamino)-1-oxa-8-azaspiro[4.5]decan-8-ylsulfonyl)quinolin-4(1H)-one], for which the IC50 was 62.9 nM.

Turning to `CC(C)(CN)c1ccc(-c2cccc(S(=O)(=O)N3CCC4(CC3)C[C@H](NC[C@H](O)COc3cccc(S(=O)(=O)C5(CO)CC5)c3)CO4)c2)cc1` [Compound 180, (S)-1-((S)-8-(4′-(1-amino-2-methylpropan-2-yl)biphenyl-3-ylsulfonyl)-1-oxa-8-azaspiro[4.5]decan-3-ylamino)-3-(3-(1-(hydroxymethyl)cyclopropylsulfonyl)phenoxy)propan-2-ol], the IC50 worked out at 30.7 nM.

Consider `COCCNCc1ccc(-c2cccc(S(=O)(=O)N3CCC4(CC3)C[C@@H](NC[C@H](O)COc3cccc(S(=O)(=O)C5(CO)CC5)c3)CO4)c2)cc1` [Compound 267, (S)-1-(3-(1-(hydroxymethyl)cyclopropylsulfonyl)phenoxy)-3-((R)-8-(4′-((2-methoxyethylamino)methyl)biphenyl-3-ylsulfonyl)-1-oxa-8-azaspiro[4.5]decan-3-ylamino)propan-2-ol], for which the IC50 worked out at 442 nM.

Consider `NCc1ccc(-c2cccc(S(=O)(=O)N3CCC4(CC3)C[C@@H](NC[C@H](O)COc3cccc(S(=O)(=O)C5CC5)c3)CO4)c2)cc1` [Compound 189, (S)-1-((R)-8-(4′-(aminomethyl)biphenyl-3-ylsulfonyl)-1-oxa-8-azaspiro[4.5]decan-3-ylamino)-3-(3-(cyclopropylsulfonyl)phenoxy)propan-2-ol], for which the IC50 came out at 10.3 nM.

For `CS(=O)(=O)c1ccc(OC[C@@H](O)CNC2COC3(CCN(S(=O)(=O)c4ccc5ccccc5c4)CC3)C2)cc1` (stereo partly drawn) [Compound 334, (2S)-1-(4-(methylsulfonyl)phenoxy)-3-(8-(naphthalen-2-ylsulfonyl)-1-oxa-8-azaspiro[4.5]decan-3-ylamino)propan-2-ol], the 50% inhibitory concentration (IC50) was 79.9 nM.

Turning to `CS(=O)(=O)c1cccc(OC[C@@H](O)CNC2COC3(CCN(S(=O)(=O)c4ccc5c(Cl)cccc5c4)CC3)C2)c1` (stereo partly drawn) [Compound 59, (2S)-1-(8-(5-chloronaphthalen-2-ylsulfonyl)-1-oxa-8-azaspiro[4.5]decan-3-ylamino)-3-(3-(methylsulfonyl)phenoxy)propan-2-ol], the IC50 amounted to 12.3 nM.

For `CS(=O)(=O)c1cccc(OC[C@@H](O)CNC2COC3(CCN(C(=O)c4cc5ccccc5[nH]4)CC3)C2)c1` (stereo partly drawn) [Compound 65, (3-((S)-2-hydroxy-3-(3-(methylsulfonyl)phenoxy)propylamino)-1-oxa-8-azaspiro[4.5]decan-8-yl)(1H-indol-2-yl)methanone], the half-inhibitory concentration (IC50) came out at 711 nM.

Turning to `COCS(=O)(=O)c1cccc(OC[C@@H](O)CN[C@H]2COC3(CCN(S(=O)(=O)c4c[nH]c5ccccc45)CC3)C2)c1` [Compound 312, (S)-1-((R)-8-(1H-indol-3-ylsulfonyl)-1-oxa-8-azaspiro[4.5]decan-3-ylamino)-3-(3-(methoxymethylsulfonyl)phenoxy)propan-2-ol], the IC50 is 31.5 nM.

Regarding `O=S(=O)(CC1CC1)c1cccc(OC[C@@H](O)CN[C@H]2COC3(CCN(S(=O)(=O)c4cnc5ccccc5c4)CC3)C2)c1` [Compound 140, (S)-1-(3-(cyclopropylmethylsulfonyl)phenoxy)-3-((R)-8-(quinolin-3-ylsulfonyl)-1-oxa-8-azaspiro[4.5]decan-3-ylamino)propan-2-ol], the IC50 came to 45.9 nM.

Regarding `CCOc1ccc(-c2ccc(CN)cc2)cc1S(=O)(=O)N1CCC2(CC1)C[C@H](NC[C@H](O)COc1cccc(S(C)(=O)=O)c1F)CO2` [Compound 209, (S)-1-((S)-8-(4′-(aminomethyl)-4-ethoxybiphenyl-3-ylsulfonyl)-1-oxa-8-azaspiro[4.5]decan-3-ylamino)-3-(2-fluoro-3-(methylsulfonyl)phenoxy)propan-2-ol], the IC50 is 8.79 nM.

As for `CS(=O)(=O)c1cccc(OC[C@@H](O)CNC2COC3(CCN(S(=O)(=O)c4ccc(-c5ccccc5)s4)CC3)C2)c1` (stereo partly drawn) [Compound 51, (2S)-1-(3-(methylsulfonyl)phenoxy)-3-(8-(5-phenylthiophen-2-ylsulfonyl)-1-oxa-8-azaspiro[4.5]decan-3-ylamino)propan-2-ol], the IC50 was found to be 17.4 nM.

As for `CC(C)S(=O)(=O)c1cccc(OC[C@@H](O)CNC2COC3(CCN(S(=O)(=O)c4ccc5ccccc5c4)CC3)C2)c1` (stereo partly drawn) [Compound 8, (2S)-1-(3-(isopropylsulfonyl)phenoxy)-3-(8-(naphthalen-2-ylsulfonyl)-1-oxa-8-azaspiro[4.5]decan-3-ylamino)propan-2-ol], the IC50 came out at 12.1 nM.

For the compound `O=S(=O)(c1cccc(OC[C@@H](O)CNC2COC3(CCN(S(=O)(=O)c4ccc5ccccc5c4)CC3)C2)c1)C1COC1` (stereo partly drawn) [Compound 24, (2S)-1-(8-(naphthalen-2-ylsulfonyl)-1-oxa-8-azaspiro[4.5]decan-3-ylamino)-3-(3-(oxetan-3-ylsulfonyl)phenoxy)propan-2-ol], the IC50 is 23.6 nM.

With `Cc1c(S(=O)(=O)N2CCC3(CC2)C[C@@H](NC[C@H](O)COc2cccc(S(=O)(=O)CC(N)=O)c2)CO3)cnc2c1N(C)CCO2` [Compound 276, 2-(3-((S)-3-((R)-8-(1,8-dimethyl-2,3-dihydro-1H-pyrido[2,3-b][1,4]oxazin-7-ylsulfonyl)-1-oxa-8-azaspiro[4.5]decan-3-ylamino)-2-hydroxypropoxy)phenylsulfonyl)acetamide], the IC50 came to 1810 nM.

As for `O=S(=O)(CC1CC1(F)F)c1cccc(OC[C@@H](O)CNC2COC3(CCN(S(=O)(=O)c4ccc5ccccc5c4)CC3)C2)c1` (stereo partly drawn) [Compound 17, (2S)-1-(3-((2,2-difluorocyclopropyl)methylsulfonyl)phenoxy)-3-(8-(naphthalen-2-ylsulfonyl)-1-oxa-8-azaspiro[4.5]decan-3-ylamino)propan-2-ol], the IC50 was 38.8 nM.

As to `CCOc1ccc(-c2ccc(C3(N)CC3)cc2)cc1S(=O)(=O)N1CCC2(CC1)C[C@@H](NC[C@H](O)COc1cccc(S(=O)(=O)CC)c1)CO2` [Compound 257, (S)-1-((R)-8-(4′-(1-aminocyclopropyl)-4-ethoxybiphenyl-3-ylsulfonyl)-1-oxa-8-azaspiro[4.5]decan-3-ylamino)-3-(3-(ethylsulfonyl)phenoxy)propan-2-ol], the IC50 was determined as 37.8 nM.

Consider `CCOc1ccc(-c2ccc(CN)cc2)cc1S(=O)(=O)N1CCC2(CC1)C[C@@H](NC[C@H](O)COc1cccc(S(=O)(=O)CC(N)=O)c1)CO2` [Compound 179, 2-(3-((S)-3-((R)-8-(4′-(aminomethyl)-4-ethoxybiphenyl-3-ylsulfonyl)-1-oxa-8-azaspiro[4.5]decan-3-ylamino)-2-hydroxypropoxy)phenylsulfonyl)acetamide], for which the IC50 came out at 49.1 nM.

In the case of `O=S(=O)(CCO)c1cccc(OC[C@@H](O)CN[C@H]2COC3(CCN(S(=O)(=O)c4cccc(-c5cccc(F)n5)c4)CC3)C2)c1` [Compound 134, (S)-1-((R)-8-(3-(6-fluoropyridin-2-yl)phenylsulfonyl)-1-oxa-8-azaspiro[4.5]decan-3-ylamino)-3-(3-(2-hydroxyethylsulfonyl)phenoxy)propan-2-ol], the 50% inhibitory concentration (IC50) amounted to 55.1 nM.

For the compound `COc1ccc(S(=O)(=O)N2CCC3(CC2)C[C@@H](NC[C@H](O)COc2cccc(S(=O)(=O)C4(CO)CC4)c2)CO3)cc1-c1ccc(C2(N)CC2)cc1` [Compound 199, (S)-1-((R)-8-(4′-(1-aminocyclopropyl)-6-methoxybiphenyl-3-ylsulfonyl)-1-oxa-8-azaspiro[4.5]decan-3-ylamino)-3-(3-(1-(hydroxymethyl)cyclopropylsulfonyl)phenoxy)propan-2-ol], the half-maximal inhibitory concentration (IC50) worked out at 25 nM.

With `CS(=O)(=O)c1cccc(OC[C@@H](O)CNC2COC3(CCN(C(=O)c4ccc5cc[nH]c5c4)CC3)C2)c1` (stereo partly drawn) [Compound 68, (3-((S)-2-hydroxy-3-(3-(methylsulfonyl)phenoxy)propylamino)-1-oxa-8-azaspiro[4.5]decan-8-yl)(1H-indol-6-yl)methanone], the half-inhibitory concentration (IC50) came out at 494 nM.

Turning to `NCCc1ccc(-c2cccc(S(=O)(=O)N3CCC4(CC3)C[C@H](NC[C@H](O)COc3cccc(S(=O)(=O)C(F)(F)CO)c3)CO4)c2)cc1` [Compound 210, (S)-1-((S)-8-(4′-(2-aminoethyl)biphenyl-3-ylsulfonyl)-1-oxa-8-azaspiro[4.5]decan-3-ylamino)-3-(3-(1,1-difluoro-2-hydroxyethylsulfonyl)phenoxy)propan-2-ol], the IC50 was 22.4 nM.
